Test results: ChEMBL document CHEMBL1125685, “Benzyloxazolidine-2,4-diones as potent hypoglycemic agents” (1991)

How the values were obtained:
Format in all cases: functional
[1] = system: Mus musculus; assay: Percentage glucose normalization relative to the ciglitazone effect at 50 mg/kg, which lower blood glucose levels to that of the lean littermates at the dose 5 mg/kg (in mice)
[2] = system: Mus musculus; assay: Percentage glucose normalization relative to the ciglitazone effect at 50 mg/kg, which lower blood glucose levels to that of the lean littermates at the dose 25 mg/kg (in mice)
[3] = system: Mus musculus; assay: Percentage glucose normalization relative to the ciglitazone effect at 50 mg/kg, which lower blood glucose levels to that of the lean littermates at the dose 0.1 mg/kg (in mice)
[4] = system: Mus musculus; assay: Percentage glucose normalization relative to the ciglitazone effect at 50 mg/kg, which lower blood glucose levels to that of the lean littermates at the dose 0.2 mg/kg (in mice)
[5] = system: Mus musculus; assay: Percentage glucose normalization relative to the ciglitazone effect at 50 mg/kg, which lower blood glucose levels to that of the lean littermates at the dose 1 mg/kg (in mice)
[6] = system: Mus musculus; assay: Percentage glucose normalization relative to the ciglitazone effect at 50 mg/kg, which lower blood glucose levels to that of the lean littermates at the dose 10 mg/kg (in mice)
[7] = system: Mus musculus; assay: Percentage glucose normalization relative to the ciglitazone effect at 50 mg/kg, which lower blood glucose levels to that of the lean littermates at the dose 0.5 mg/kg (in mice)
[8] = system: Mus musculus; assay: Percentage glucose normalization relative to the ciglitazone effect at 50 mg/kg, which lower blood glucose levels to that of the lean littermates at the dose 0.025 mg/kg (in mice)
[9] = system: Mus musculus; assay: Percentage glucose normalization relative to the ciglitazone effect at 50 mg/kg, which lower blood glucose levels to that of the lean littermates at the dose 0.05 mg/kg (in mice)

Row | Structure (SMILES) | Glucose normalisation [4] | Glucose normalisation [5] | Glucose normalisation [7] | other results
1 | Cc1oc(-c2ccccc2)nc1COc1ccc(CC2OC(=O)NC2=O)cc1 (stereo unspecified) | – | – | – | Glucose normalisation [1]: 60%
2 | O=C1NC(=O)C(Cc2ccc(Oc3ccc4oc(-c5ccccc5)nc4c3)cc2)O1 (stereo unspecified) | – | – | – | Glucose normalisation [2]: 0%
3 | Cc1oc(-c2ccc3ccccc3c2)nc1Cc1cc2cc(CC3OC(=O)NC3=O)ccc2o1 (stereo unspecified) | 70% | 75% | – | Glucose normalisation [3]: 76%
4 | O=C1NC(=O)C(Cc2ccc(OCCc3oc(-c4ccccc4)nc3Cc3ccccc3)cc2)O1 (stereo unspecified) | – | – | – | Glucose normalisation [6]: 40%
5 | Cc1oc(-c2cc(C(F)(F)F)cc(C(F)(F)F)c2)nc1CCOc1ccc(CC2OC(=O)NC2=O)cc1 (stereo unspecified) | 14% | – | 95% | –
6 | Cc1oc(C2CCCCC2)nc1Cc1cc2cc(CC3OC(=O)NC3=O)ccc2o1 (stereo unspecified) | 91% | – | – | Glucose normalisation [3]: 64%
7 | Cc1cccc(-c2nc(Cc3cc4cc(CC5OC(=O)NC5=O)ccc4o3)c(C)o2)c1 (stereo unspecified) | – | – | 100% | Glucose normalisation [3]: 90%
8 | Cc1oc(-c2ccc3ccccc3c2)nc1CCOc1ccc(CC2OC(=O)NC2=O)cc1 (stereo unspecified) | 46% | 98% | 100% | –
9 | Cc1sc(-c2ccc3ccccc3c2)nc1CCOc1ccc(CC2OC(=O)NC2=O)cc1 (stereo unspecified) | – | – | 0% | –
10 | Cc1ccc(-c2nc(Cc3cc4cc(CC5OC(=O)NC5=O)ccc4o3)c(C)o2)cc1 (stereo unspecified) | 100% | – | – | Glucose normalisation [3]: 40%
11 | COc1ccc(-c2nc(CCOc3ccc(CC4OC(=O)NC4=O)cc3)c(C)o2)cc1 (stereo unspecified) | – | 80% | 53% | –
12 | Cc1oc(-c2ccccc2)nc1Cc1cc2cc(CC3OC(=O)NC3=O)ccc2o1 (stereo unspecified) | 100% | – | – | Glucose normalisation [1]: 100%; Glucose normalisation [8]: 65%; Glucose normalisation [3]: 92%; Glucose normalisation [9]: 77%
13 | Cc1oc(-c2ccco2)nc1CCOc1ccc(CC2OC(=O)NC2=O)cc1 (stereo unspecified) | – | 14% | – | Glucose normalisation [1]: 24%
14 | Cc1oc(-c2ccccc2)nc1CCOc1ccc(CC2OC(=O)NC2=O)cc1 (stereo unspecified) | – | 100% | 28% | –
15 | Cc1oc(-c2ccccc2)nc1CCOc1ccc(C2OC(=O)NC2=O)cc1 (stereo unspecified) | – | 0% | – | –
16 | Cc1oc(-c2ccccc2)nc1CCC(=O)c1ccc(CC2OC(=O)NC2=O)cc1 (stereo unspecified) | – | 13% | – | Glucose normalisation [1]: 75%
17 | Cc1sc(-c2ccccc2)nc1Cc1cc2cc(CC3OC(=O)NC3=O)ccc2o1 (stereo unspecified) | – | – | 0% | –
18 | Cc1nc(-c2ccc3ccccc3c2)oc1CCOc1ccc(CC2OC(=O)NC2=O)cc1 (stereo unspecified) | – | 0% | – | Glucose normalisation [1]: 10%
19 | Cc1oc(C2CCCCC2)nc1CCOc1ccc(CC2OC(=O)NC2=O)cc1 (stereo unspecified) | – | 61% | – | –
